The subject of one data set is H292 cells. Kind of data set: Cytotoxicity, MTT assay, H292. In kind it is cell-based, human. Conditions: Homo sapiens, NCI-H292, H292, 24 h at 37°C.
Data set [1] is described as follows: Hydrolytic stability of the APL prodrugs monitored by 31P-NMR. It is filed as physicochemical. An excerpt: Aqueous formulation of the APL prodrugs produces nanosized lipid aggregates that most likely enter cells through the endocytosis pathway. To produce the expected intrinsic antineoplastic effect, APL-derived phosphotriesters need to be processed into the bioactive parent APLs. The hydrolysis of the prodrugs may be under the control of a chemical stimulus, e.g., a pH decrease as observed during the maturation of endosomes, or of degradation enzymes that massively enter the endosome compartment when continuing to lysosomes. To get some information on the transformation of pro-APLs into APLs, we monitored the hydrolysis of these compounds over time, at pH 7.4 and 4.5, conditions that mimick the extracellular milieu and the environment of the late endosome, respectively. This monitoring was realized using ^31P-NMR spectroscopy, according to a previously reported method (Pierrat et al., [2013b]). Whatever the compound investigated, only one single ^31P resonance did appear during the course of the experiments, corresponding to that of the parent APL. This confirmed that hydrolysis of the pro-APLs selectively occurred at the acetal center. […] As a general trend, hydrolysis of the pro-APLs was […] under neutral conditions (i.e., pH 7.4) than under acidic ones (i.e., pH 4.5). […] Besides, substitution of one hydrogen atom with a methyl group on the acetal bridge accelerated the rate of hydrolysis of the prodrugs. […] Indeed, in biological media, the enzyme-mediated hydrolysis of such compounds can proceed far quicker than “simple” chemical hydrolysis under pH control (Pierrat et al., [2012]). […]

A short description of data set [2]: Particle size and zeta potential of lipoplexes by DLS. In kind it is physicochemical. Conditions: lipoplexes with pCMV-Gluc, 25 °C, 5 % glucose, N/P 3, 1 molar equivalent of DOPE. The source says: The capacity of the pro-APLs to interact electrostatically with nucleic acids and form lipoplexes was checked by standard agarose gel electrophoresis. […] The size (hydrodynamic diameter) and charge (zeta potential, ζ) of the lipoplexes prepared at an N/P ratio of 3 with one molar equivalent of dioleoyl-sn-glycero-3-phosphatidylethanolamine (DOPE), a lipid with fusogenic properties (Hui et al., [1996]; Zuhorn et al., [2005]), were investigated by DLS (Supplementary Table 1).
as measured by DLS. Lipoplexes were prepared at 25 °C, in 5 % glucose, at a N/P ratio of 3 and with
1 molar equivalent of DOPE.
(Gaillard et al., 2019). Data are the mean of three independent measurements (± SD).

The term IC50 denotes the concentration that gives 50% inhibition.

As to `CCCCCCCCCCCCCCCCCCOP(=O)(OCOC(=O)CCCCCCCCCCC)OC1CC[N+](C)(C)CC1.[Cl-]` (stereo not shown) [PE12, 4-((((Dodecanoyloxy)methoxy)(octadecyloxy)phosphoryl)oxy)-1,1-dimethylpiperidin-1-ium chloride], in the data set with H292 cells, the IC50 was determined as 168 ± 7 µM. Moreover, the results for the “H120 (hydrolysis rate after a 120-h incubation period)” value in data set [1] (pH 4.5) and in data set [1] (pH 7.4) were 2% and 16%, respectively. Besides, in data set [2], the “Particle size of lipoplexes” value amounted to 330 ± 76 nm.
